This note sets out measurements from patent publication US8623859B2, “Bradykinin B1 antagonists” (Evotec AG, priority 2008, dated 2014).

For this assay, the target named is T1, human B1 (Homo sapiens, UniProt P46663).
T1 construct: host or cells: CHO-K1
T1 sequence (P46663 1-353): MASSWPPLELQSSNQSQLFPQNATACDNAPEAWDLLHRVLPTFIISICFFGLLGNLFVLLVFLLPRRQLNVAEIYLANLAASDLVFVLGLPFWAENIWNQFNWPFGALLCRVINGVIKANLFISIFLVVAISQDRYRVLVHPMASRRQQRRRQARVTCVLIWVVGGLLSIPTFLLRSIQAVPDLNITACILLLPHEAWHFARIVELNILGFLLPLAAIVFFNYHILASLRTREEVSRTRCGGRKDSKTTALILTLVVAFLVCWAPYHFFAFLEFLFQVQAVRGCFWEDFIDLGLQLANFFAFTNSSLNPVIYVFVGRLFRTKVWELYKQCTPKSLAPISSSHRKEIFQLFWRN
As to the kind of experiment: Calcium flux assay for Bradykinin B1 antagonist, CHO-K1 cell line expressing human B1. The format is cell-based. Particulars: CHO-K1 cells expressing human B1, agonist Lys-(Des-Arg)-Bradykinin, read-out: Potency (IC50 value against human B1). The gist of the method: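 CHO-K1 cells expressing human B1, loaded with 5 μM Fluo-4AM (2 h, 37° C) in HEPES buffer pH 7.4 with probenecid and 0.1% BSA, were preincubated 30 min at 25° C with compound (8 concentrations, triplicate, 1% DMSO) before B1 agonist addition. Ca2+ fluorescence monitored at 538 nm; background-normalized integrated values plotted against log antagonist concentration.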

Counter-ions that a name gives are not always drawn.

Regarding `COc1cc(C)c(S(=O)(=O)N(Cc2noc(C(=O)N(C)Cc3nnc(CN4CCCC4)s3)n2)C2CC2)c(C)c1` [Ex 313, 3-({Cyclopropyl[(4-methoxy-2,6-dimethylphenyl)sulfonyl]amino}methyl)-N-methyl-N-{[5-(pyrrolidin-1-ylmethyl)-1,3,4-thiadiazol-2-yl]methyl}-1,2,4-oxadiazole-5-carboxamide], the IC50 is < 10 nM.
Under `COc1cc(C)c(S(=O)(=O)N(Cc2noc(C(=O)N3CCN(CC4CCN(C)CC4)CC3)n2)C2CC2)c(C)c1` [Ex 314, N-Cyclopropyl-4-methoxy-2,6-dimethyl-N-{[5-({4-[(1-methylpiperidin-4-yl)methyl]piperazin-1-yl}carbonyl)-1,2,4-oxadiazol-3-yl]methyl}benzenesulfonamide] stands < 10 nM.
Under `COc1cc(C)c(S(=O)(=O)N(Cc2noc(C(=O)N3CCN(CC4CCCN(C)C4)CC3)n2)C2CC2)c(C)c1` (stereo not drawn) [Ex 315, N-Cyclopropyl-4-methoxy-2,6-dimethyl-N-{[5-({4-[(1-methylpiperidin-3-yl)methyl]piperazin-1-yl}carbonyl)-1,2,4-oxadiazol-3-yl]methyl}benzenesulfonamide] stands 10 to 100 nM; under `COc1cc(C)c(S(=O)(=O)N(Cc2noc(C(=O)N3CCN(CCCN(C)C)CC3)n2)C2CC2)c(C)c1` [Ex 316, N-Cyclopropyl-N-{[5-([4-[3-(dimethylamino)propyl]piperazin-1-yl]carbonyl)-1,2,4-oxadiazol-3-yl]methyl}-4-methoxy-2,6-dimethylbenzenesulfonamide], 10 to 100 nM; under `COc1cc(C)c(S(=O)(=O)N(Cc2noc(C(=O)N3CCN(CCCN4CCCC4)CC3)n2)C2CC2)c(C)c1` [Ex 317, N-Cyclopropyl-4-methoxy-2,6-dimethyl-N-[(5-{[4-(3-pyrrolidin-1-ylpropyl)piperazin-1-yl]carbonyl}-1,2,4-oxadiazol-3-yl)methyl]benzenesulfonamide], < 10 nM.
For `COc1cc(C)c(S(=O)(=O)N(Cc2noc(C(=O)N3CCN(CCN4CCCC4)CC3)n2)C2CC2)c(C)c1` [Ex 318, N-Cyclopropyl-4-methoxy-2,6-dimethyl-N-[(5-{[4-(2-pyrrolidin-1-ylethyl)piperazin-1-yl]carbonyl}-1,2,4-oxadiazol-3-yl)methyl]benzenesulfonamide], the IC50 lay within 10 to 100 nM.
For the molecule `COc1cc(C)c(S(=O)(=O)N(C)Cc2noc(C(=O)N3CCN(CCCCN(C)C)CC3)n2)c(C)c1` [Ex 319, N-{[5-({4-[4-(Dimethylamino)butyl]piperazin-1-yl}carbonyl)-1,2,4-oxadiazol-3-yl]methyl}-4-methoxy-N,2,6-trimethylbenzenesulfonamide trifluoroacetate], the IC50 lay within 100 to 1000 nM.
As for `COc1cc(C)c(S(=O)(=O)N(Cc2noc(C(=O)N3CCN(CCCCN(C)C)CC3)n2)C2CC2)c(C)c1` [Ex 320, N-Cyclopropyl-N-{[5-({4-[4-(dimethylamino)butyl]piperazin-1-yl}carbonyl)-1,2,4-oxadiazol-3-yl]methyl}-4-methoxy-2,6-dimethylbenzenesulfonamide trifluoroacetate], the IC50 was in the range of 100 to 1000 nM.
`COc1cc(C)c(S(=O)(=O)N(C)Cc2nc(C(=O)N3CCN(CC4CCN(C)CC4)CC3)no2)c(C)c1` [Ex 321, 4-Methoxy-N,2,6-trimethyl-N-{[3-({4-[(1-methylpiperidin-4-yl)methyl]piperazin-1-yl}carbonyl)-1,2,4-oxadiazol-5-yl]methyl}benzenesulfonamide]: the IC50 was 100 to 1000 nM.
As to `COc1cc(C)c(S(=O)(=O)N(C)Cc2nc(C(=O)N3CCN(CCCCN(C)C)CC3)no2)c(C)c1` [Ex 322, N-{[3-({4-[4-(Dimethylamino)butyl]piperazin-1-yl}carbonyl)-1,2,4-oxadiazol-5-yl]methyl}-4-methoxy-N,2,6-trimethylbenzenesulfonamide trifluoroacetate], the IC50 was in the range of 100 to 1000 nM.
With `COc1cc(C)c(S(=O)(=O)N(C)Cc2nc(C(=O)N3CCN(Cc4cccnc4)CC3)no2)c(C)c1` [Ex 323, 4-Methoxy-N,2,6-trimethyl-N-[(3-{[4-(pyridin-3-ylmethyl)piperazin-1-yl]carbonyl}-1,2,4-oxadiazol-5-yl)methyl]benzenesulfonamide] the figure was 100 to 1000 nM.
Take `COc1cc(C)c(S(=O)(=O)N(C)Cc2nc(C(=O)N(C)Cc3cccc(CN4CCCC4)c3)no2)c(C)c1` [Ex 324, 5-({[(4-Methoxy-2,6-dimethylphenyl)sulfonyl](methyl)amino}methyl)-N-methyl-N-[3-(pyrrolidin-1-ylmethyl)benzyl]-1,2,4-oxadiazole-3-carboxamide trifluoroacetate]: the IC50 fell in the range of 10 to 100 nM.
For `COc1cc(C)c(S(=O)(=O)N(C)Cc2nc(C(=O)N3CCN(CCCN4CCCC4)CC3)no2)c(C)c1` [Ex 325, 4-Methoxy-N,2,6-trimethyl-N-[(3-{[4-(3-pyrrolidin-1-ylpropyl)piperazin-1-yl]carbonyl}-1,2,4-oxadiazol-5-yl)methyl]benzenesulfonamide], the IC50 was 10 to 100 nM.
With `COc1cc(C)c(S(=O)(=O)N(C)Cc2nnc(C(=O)N3CCN(CCN4CCCC4)CC3)s2)c(C)c1` [Ex 326, 4-Methoxy-N,2,6-trimethyl-N-[(5-{[4-(2-pyrrolidin-1-ylethyl)piperazin-1-yl]carbonyl}-1,3,4-thiadiazol-2-yl)methyl]benzenesulfonamide] the figure was 100 to 1000 nM; with `COc1cc(C)c(S(=O)(=O)N(C)Cc2nnc(C(=O)N3CCN(CCCN4CCCC4)CC3)s2)c(C)c1` [Ex 327, 4-Methoxy-N,2,6-trimethyl-N-[(5-{[4-(3-pyrrolidin-1-ylpropyl)piperazin-1-yl]carbonyl}-1,3,4-thiadiazol-2-yl)methyl]benzenesulfonamide], 100 to 1000 nM.
Under `COc1cc(C)c(S(=O)(=O)N(C)Cc2nnc(C(=O)N(C)CCc3ccc(C4=NCCN4)cc3)s2)c(C)c1` [Ex 328, N-{2-[4-(4,5-Dihydro-1H-imidazol-2-yl)phenyl]ethyl}-5-({[(4-methoxy-2,6-dimethylphenyl)sulfonyl](methyl)amino}methyl)-N-methyl-1,3,4-thiadiazole-2-carboxamide] stands < 10 nM; under `COc1cc(C)c(S(=O)(=O)N(C)Cc2nnc(C(=O)N(C)Cc3ccc(CN4CCCC4)cc3)s2)c(C)c1` [Ex 329, 5-({[(4-Methoxy-2,6-dimethylphenyl)sulfonyl](methyl)amino}methyl)-N-methyl-N-[4-(pyrrolidin-1-ylmethyl)benzyl]-1,3,4-thiadiazole-2-carboxamide], 100 to 1000 nM; under `COc1cc(C)c(S(=O)(=O)N(C)Cc2nnc(C(=O)NCCc3ccc(C4=NCCN4)cc3)s2)c(C)c1` [Ex 330, N-{2-[4-(4,5-Dihydro-1H-imidazol-2-yl)phenyl]ethyl}-5-({[(4-methoxy-2,6-dimethylphenyl)sulfonyl](methyl)amino}methyl)-1,3,4-thiadiazole-2-carboxamide trifluoroacetamide], < 10 nM.
`COc1cc(C)c(S(=O)(=O)N(C)Cc2nnc(C(=O)N(C)Cc3cccc(CN4CCCC4)c3)s2)c(C)c1` [Ex 331, 5-({[(4-Methoxy-2,6-dimethylphenyl)sulfonyl](methyl)amino}methyl)-N-methyl-N-[3-(pyrrolidin-1-ylmethyl)benzyl]-1,3,4-thiadiazole-2-carboxamide trifluoroacetate]: the IC50 fell in the range of 10 to 100 nM.
Under `COc1cc(C)c(S(=O)(=O)N(C)Cc2nnc(C(=O)N3CCN(C4CCN(C)CC4)CC3)s2)c(C)c1` [Ex 332, 4-Methoxy-N,2,6-trimethyl-N-[(5-{[4-(1-methylpiperidin-4-yl)piperazin-1-yl]carbonyl}-1,3,4-thiadiazol-2-yl)methyl]benzenesulfonamide trifluoroacetamide] stands 100 to 1000 nM.
In the case of `COc1cc(C)c(S(=O)(=O)N(C)Cc2nnc(C(=O)N3CCN(CC4CCN(C)CC4)CC3)s2)c(C)c1` [Ex 333, 4-Methoxy-N,2,6-trimethyl-N-{[5-({4-[(1-methylpiperidin-4-yl)methyl]piperazin-1-yl}carbonyl)-1,3,4-thiadiazol-2-yl]methyl}benzenesulfonamide], the IC50 was 100 to 1000 nM.
For `COc1cc(C)c(S(=O)(=O)N(Cc2nnc(C(=O)N3CCN(C4CCN(C)CC4)CC3)s2)C2CC2)c(C)c1` [Ex 334, N-Cyclopropyl-4-methoxy-2,6-dimethyl-N-[(5-{[4-(1-methylpiperidin-4-yl)piperazin-1-yl]carbonyl}-1,3,4-thiadiazol-2-yl)methyl]benzenesulfonamide], the IC50 is < 10 nM.
For `COc1cc(C)c(S(=O)(=O)N(Cc2nnc(C(=O)N3CCN(CC4CCN(C)CC4)CC3)s2)C2CC2)c(C)c1` [Ex 335, N-Cyclopropyl-4-methoxy-2,6-dimethyl-N-{[5-({4-[(1-methylpiperidin-4-yl)methyl]piperazin-1-yl}carbonyl)-1,3,4-thiadiazol-2-yl]methyl}benzenesulfonamide], the IC50 was < 10 nM.
With `COc1cc(C)c(S(=O)(=O)N(Cc2nnc(C(=O)N3CCN(CCCN4CCCC4)CC3)s2)C2CC2)c(C)c1` [Ex 336, N-Cyclopropyl-4-methoxy-2,6-dimethyl-N-[(5-{[4-(3-pyrrolidin-1-ylpropyl)piperazin-1-yl]carbonyl}-1,3,4-thiadiazol-2-yl)methyl]benzenesulfonamide], the IC50 lay in the range of 10 to 100 nM.
